What was measured:
AHR [1] = biological target: T1, AHR (Homo sapiens, UniProt P35869); experiment: In vitro assay 1: antagonism in human cell line (transactivation assay, U87 cells prestimulated with kynurenic acid, DRE firefly luciferase reporter); type: cell-based; parameters: host or cells: U87 glioblastoma cells, stably transfected with DRE firefly luciferase and renilla reporter constructs; settings: 150 uM kynurenic acid, 20 hours, read-out: Assay 1: AHR-luc Hum Antagonism IC50
T1 sequence (P35869 11-848): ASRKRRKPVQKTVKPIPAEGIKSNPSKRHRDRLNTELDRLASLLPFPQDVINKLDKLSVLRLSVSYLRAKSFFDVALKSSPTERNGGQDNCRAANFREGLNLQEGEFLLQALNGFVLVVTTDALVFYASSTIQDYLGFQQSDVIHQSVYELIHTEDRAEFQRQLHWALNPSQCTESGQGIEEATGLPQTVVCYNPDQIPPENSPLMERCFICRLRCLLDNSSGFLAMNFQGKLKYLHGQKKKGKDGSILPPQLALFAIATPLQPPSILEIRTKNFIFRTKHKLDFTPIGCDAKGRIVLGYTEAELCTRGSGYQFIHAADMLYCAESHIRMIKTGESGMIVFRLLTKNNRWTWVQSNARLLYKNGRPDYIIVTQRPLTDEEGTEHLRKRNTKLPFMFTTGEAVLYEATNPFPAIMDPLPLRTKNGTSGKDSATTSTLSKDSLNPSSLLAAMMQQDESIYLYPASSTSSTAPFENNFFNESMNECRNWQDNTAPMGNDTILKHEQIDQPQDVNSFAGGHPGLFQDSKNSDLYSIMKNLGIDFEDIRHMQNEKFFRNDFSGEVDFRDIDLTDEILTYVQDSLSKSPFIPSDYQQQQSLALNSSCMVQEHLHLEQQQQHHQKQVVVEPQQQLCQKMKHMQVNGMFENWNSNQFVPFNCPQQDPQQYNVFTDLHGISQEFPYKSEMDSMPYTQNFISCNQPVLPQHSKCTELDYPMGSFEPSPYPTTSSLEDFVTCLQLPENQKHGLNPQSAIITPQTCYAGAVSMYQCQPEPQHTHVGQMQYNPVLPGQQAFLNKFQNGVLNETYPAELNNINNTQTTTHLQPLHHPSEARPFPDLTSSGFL
Outline: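 Antagonism measured after kynurenic acid prestimulation in U87 cells that express AHR endogenously and stably harbor a firefly luciferase gene under DRE control plus a constitutive renilla construct. Positive and negative controls served for normalization.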

AHR [2] = biological target: T1, AHR; experiment: In vitro assay 2: agonism in human cell line (transactivation assay, U87 cells, DRE firefly luciferase reporter); type: cell-based; parameters: host or cells: U87 glioblastoma cells, stably transfected with DRE firefly luciferase and renilla reporter constructs; settings: no kynurenic acid, 20 hours, read-out: Assay 2: AHR-luc Hum Agonism IC50
Outline: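 Agonist readout: DRE firefly luciferase, with constitutive renilla reporter, in stably transfected U87 cells expressing AHR endogenously. Normalization used positive control (300 uM kynurenic acid) and negative control.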

Compound | IC50 (AHR [1]) [nM] | IC50 (AHR [2]) [nM]
C[C@@H](NC(=O)c1cc(-c2ccc(OC(F)(F)F)cc2)nn(-c2cccnc2)c1=O)C(C)(C)O [Example 294, N-[(2R)-3-Hydroxy-3-methylbutan-2-yl]-3-oxo-2-(pyridin-3-yl)-6-[4-(trifluoromethoxy)phenyl]-2,3-dihydropyridazine-4-carboxamide] | 49.8 | > 20000
O=C(NC[C@H](O)C(F)(F)F)c1cc(-c2ccc(Cl)cc2)nn(-c2cnsc2)c1=O [Example 199, 6-(4-Chlorophenyl)-3-oxo-2-(1,2-thiazol-4-yl)-N-[(2S)-3,3,3-trifluoro-2-hydroxypropyl]-2,3-dihydropyridazine-4-carboxamide] | 0.694 | > 20000
Cn1cc(-n2nc(-c3ccc(Cl)cc3)cc(C(=O)N[C@@H]3COC[C@@H]3O)c2=O)cn1 (racemic) [Example 43, 6-(4-Chlorophenyl)-N-[(cis)-4-hydroxytetrahydrofuran-3-yl]-2-(1-methyl-1H-pyrazol-4-yl)-3-oxo-2,3-dihydropyridazine-4-carboxamide] | 23 | > 20000
C[C@@H](CO)NC(=O)c1cc(-c2ccc(Cl)cc2)nn(-c2cnoc2)c1=O [Example 253, 6-(4-Chlorophenyl)-N-[(2S)-1-hydroxypropan-2-yl]-2-(1,2-oxazol-4-yl)-3-oxo-2,3-dihydropyridazine-4-carboxamide] | 19.4 | > 20000
O=C(N[C@H](CO)C(F)(F)F)c1cc(-c2ccc(C(F)F)cc2)nn(-c2cccnc2)c1=O [Example 127, 6-[4-(Difluoromethyl)phenyl]-3-oxo-2-(pyridin-3-yl)-N-[(2R)-1,1,1-trifluoro-3-hydroxypropan-2-yl]-2,3-dihydropyridazine-4-carboxamide] | 4.17 | > 20000
CC(C)(O)C(NC(=O)c1cc(-c2ccc(Cl)cc2)nn(-c2cncnc2)c1=O)C(F)(F)F (centres unmarked) [Example 185, 6-(4-Chlorophenyl)-3-oxo-2-(pyrimidin-5-yl)-N-(1,1,1-trifluoro-3-hydroxy-3-methylbutan-2-yl)-2,3-dihydropyridazine-4-carboxamide] | 37.1 | > 20000
O=C(NC(CO)C1CC1)c1cc(-c2ccc(C(F)(F)F)cc2)nn(-c2cccnc2)c1=O (racemic) [Example 109, N-[(1RS)-1-Cyclopropyl-2-hydroxyethyl]-3-oxo-2-(pyridin-3-yl)-6-[4-(trifluoromethyl)phenyl]-2,3-dihydropyridazine-4-carboxamide] | 1.63 | > 20000
Cn1cc(-n2nc(-c3ccc(C(F)(F)F)cc3)cc(C(=O)N[C@@H]3CCC[C@@H]3O)c2=O)cn1 [Example 239, N-[(1R,2S)-2-Hydroxycyclopentyl]-2-(1-methyl-1H-pyrazol-4-yl)-3-oxo-6-[4-(trifluoromethyl)phenyl]-2,3-dihydropyridazine-4-carboxamide] | 10 | > 20000
Cn1cc(-n2nc(-c3ccc(Cl)cc3)cc(C(=O)N[C@@H]3CCC[C@]3(C)O)c2=O)cn1 (single isomer, unassigned) [Example 336, 6-(4-Chlorophenyl)-N-[(cis)-2-hydroxy-2-methylcyclopentyl]-2-(1-methyl-1H-pyrazol-4-yl)-3-oxo-2,3-dihydropyridazine-4-carboxamide] | 42.9 | > 20000
O=C(N[C@@H]1COC[C@@H]1O)c1cc(-c2ccc(C(F)F)cc2)nn(-c2cccnc2)c1=O (relative stereo) [Example 323, 6-[4-(Difluoromethyl)phenyl]-N-[(cis)-4-hydroxy-tetrahydrofuran-3-yl]-3-oxo-2-(pyridin-3-yl)-2,3-dihydropyridazine-4-carboxamide] | 60.4 | > 20000
Cc1ccc(-c2cc(C(=O)N[C@H](C)CO)c(=O)n(-c3cnn(C)c3)n2)cc1 [Example 9, N-[(2R)-1-Hydroxypropan-2-yl]-6-(4-methylphenyl)-2-(1-methyl-1H-pyrazol-4-yl)-3-oxo-2,3-dihydropyridazine-4-carboxamide] | 164 | > 20000

Now from value to molecule:

IC50 (AHR [1]) [nM] | IC50 (AHR [2]) [nM] | Compound
13.3 | > 20000 | C[C@H](NC(=O)c1cc(-c2ccc(C(F)(F)F)cc2)nn(-c2cnn(C(F)F)c2)c1=O)C(C)(C)O [Example 228, 2-[1-(Difluoromethyl)-1H-pyrazol-4-yl]-N-[(2S)-3-hydroxy-3-methylbutan-2-yl]-3-oxo-6-[4-(trifluoromethyl)phenyl]-2,3-dihydropyridazine-4-carboxamide]
1100 | > 20000 | O=C(NC[C@H](O)C(F)(F)F)c1cc(-c2ccc(Cl)cc2)nn(-c2cnn(C3CCC3)c2)c1=O [Example 40, 6-(4-Chlorophenyl)-2-(1-cyclobutyl-1H-pyrazol-4-yl)-3-oxo-N-[(2S)-3,3,3-trifluoro-2-hydroxypropyl]-2,3-dihydropyridazine-4-carboxamide]
10.3 | > 20000 | O=C(NCC(O)C(F)(F)F)c1cc(-c2ccc(OC(F)(F)F)cc2)nn(-c2cccnc2)c1=O (centres unmarked) [Example 146, 3-Oxo-2-(pyridin-3-yl)-N-[3,3,3-trifluoro-2-hydroxypropyl]-6-[4-(trifluoromethoxy)phenyl]-2,3-dihydropyridazine-4-carboxamide]
33 | > 20000 | C[C@@H](CO)NC(=O)c1cc(-c2ccc(C(F)(F)F)cc2)nn(-c2cnn(C(F)F)c2)c1=O [Example 261, 2-[1-(Difluoromethyl)-1H-pyrazol-4-yl]-N-[(2S)-1-hydroxypropan-2-yl]-3-oxo-6-[4-(trifluoromethyl)phenyl]-2,3-dihydropyridazine-4-carboxamide]
1570 | > 20000 | C[C@@H](CO)NC(=O)c1cc(-c2ccc(Cl)cc2)nn(-c2cnn(C3CCC3)c2)c1=O [Example 42, 6-(4-Chlorophenyl)-2-(1-cyclobutyl-1H-pyrazol-4-yl)-N-[(2S)-1-hydroxypropan-2-yl]-3-oxo-2,3-dihydropyridazine-4-carboxamide]
2.58 | > 20000 | C[C@@H](NC(=O)c1cc(-c2ccc(OC(F)(F)F)cc2)nn(-c2cnsc2)c1=O)C(C)(C)O [Example 327, N-[(2R)-3-Hydroxy-3-methylbutan-2-yl]-3-oxo-2-(1,2-thiazol-4-yl)-6-[4-(trifluoromethoxy)phenyl]-2,3-dihydropyridazine-4-carboxamide]
26.5 | > 20000 | CC(C)(O)C(NC(=O)c1cc(-c2ccc(Cl)cc2)nn(-c2cccnc2)c1=O)C(F)(F)F (single isomer, unassigned; enantiomer 1) [Example 122, 6-(4-Chlorophenyl)-3-oxo-2-(pyridin-3-yl)-N-(1,1,1-trifluoro-3-hydroxy-3-methylbutan-2-yl)-2,3-dihydropyridazine-4-carboxamide, Enantiomer 1]
25 | > 20000 | O=C(N[C@H]1COC[C@@H]1O)c1cc(-c2ccc(Cl)cc2)nn(-c2cncc(F)c2)c1=O (single isomer, unassigned; enantiomer 2) [Example 156, 6-(4-Chlorophenyl)-2-(5-fluoropyridin-3-yl)-N-[(trans)-4-hydroxytetrahydrofuran-3-yl]-3-oxo-2,3-dihydropyridazine-4-carboxamide, Enantiomer 2]
